Laboratory results from patent US11247965B2 (VenatoRx Pharmaceuticals, Inc., priority 2017, dated 2022).

Legend:
[1] = system: HBV replication in HepAD38 cells; assay: Anti-HBV activity in HepAD38 cells, extracellular HBV DNA by QPCR; type: cell-based, HBV (genotype D, serotype ayw); conditions: Hepatitis B virus, HePAD38, 168 h, read-out: Anti-HBV EC50, HepAD38 cells, extracellular HBV DNA by QPCR, 7 days of incubation
How it was run: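 Seven-day compound exposure (30 μM down to 10 nM, half-log steps) after tetracycline withdrawal induced HBV replication in HepAD38 cells. Extracellular viral DNA measured by QPCR (copies/mL via standard curve), normalised to DMSO wells; EC50 from 4-parameter non-linear regression.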

[2] = In vitro cytotoxicity, MTT cell viability assay in HepG2 cells; type: cell-based; conditions: human, Cytotoxicity CC50
How it was run: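 HepG2 cells incubated 7 days at 37 °C, 5% CO2 with compounds from 30 μM to 1.0 nM (8 half-log dilutions). Viability read as MTT formazan absorbance at 492 nm, normalised to vehicle controls; CC50 from 4-parameter non-linear regression.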

SMILES | EC50 [1] | CC50 at 7 days [2]
Cc1cc(NC(=O)c2ccc(F)c(C(F)(F)C(=O)N3[C@H](C)CN(S(=O)(=O)c4cccnc4)C[C@@H]3C)c2)ccc1F [Example 290, 3-(2-((2S,6R)-2,6-dimethyl-4-(pyridin-3-ylsulfonyl)piperazin-1-yl)-1,1-difluoro-2-oxoethyl)-4-fluoro-N-(4-fluoro-3-methylphenyl)benzamide] | < 5 µM | 5 to 30 µM
O=C(Nc1ccc(F)c(F)c1)c1ccc(F)c(C(F)(F)C(=O)N2CCOCC2)c1 [Example 4, 3-(1,1-difluoro-2-morpholino-2-oxoethyl)-N-(3,4-difluorophenyl)-4-fluorobenzamide] | 5 to 30 µM | 5 to 30 µM
Cc1ccc(C(=O)Nc2ccc(F)c(F)c2)cc1C(F)(F)C(=O)NC(C)C [Example 9, 3-(1,1-difluoro-2-(isopropylamino)-2-oxoethyl)-N-(3,4-difluorophenyl)-4-methylbenzamide] | > 30 µM | > 30 µM
N#Cc1cc(NC(=O)c2ccc(Cl)c(C(F)(F)C(=O)N3CCC(O)CC3)c2)ccc1F [Example 33, 4-chloro-N-(3-cyano-4-fluorophenyl)-3-(1,1-difluoro-2-(4-hydroxypiperidin-1-yl)-2-oxoethyl)benzamide] | < 5 µM | > 30 µM
CN(CCCO)C(=O)C(F)(F)c1cc(C(=O)Nc2ccc(F)c(F)c2)ccc1F [Example 47, 3-(1,1-difluoro-2-((3-hydroxypropyl)(methyl)amino)-2-oxoethyl)-N-(3,4-difluorophenyl)-4-fluorobenzamide] | 5 to 30 µM | > 30 µM
Cc1cc(NC(=O)c2ccc(F)c(C(F)(F)C(=O)N3CCc4nc(N)sc4C3)c2)ccc1F [Example 242, 3-(2-(2-amino-6,7-dihydrothiazolo[5,4-c]pyridin-5(4H)-yl)-1,1-difluoro-2-oxoethyl)-4-fluoro-N-(4-fluoro-3-methylphenyl)benzamide] | < 5 µM | 5 to 30 µM
O=C(Nc1ccc(F)c(Br)c1)c1ccc(F)c(C(F)(F)C(=O)N2CCC(O)C(F)(F)C2)c1 (centres unmarked) [Example 175, N-(3-bromo-4-fluorophenyl)-3-(2-(3,3-difluoro-4-hydroxypiperidin-1-yl)-1,1-difluoro-2-oxoethyl)-4-fluorobenzamide] | < 5 µM | 5 to 30 µM
Cc1cc(NC(=O)c2ccc(F)c(C(F)(F)C(=O)N3CCc4cn[nH]c4C3)c2)ccc1F [Example 76, 3-(1,1-difluoro-2-oxo-2-(1,4,5,7-tetrahydro-6H-pyrazolo[3,4-c]pyridin-6-yl)ethyl)-4-fluoro-N-(4-fluoro-3-methylphenyl)benzamide] | < 5 µM | 5 to 30 µM
Cc1cc(NC(=O)c2ccc(Cl)c(C(F)(F)C(=O)N3CCC(O)CC3)c2)ccc1F [Example 17, 4-chloro-3-(1,1-difluoro-2-(4-hydroxypiperidin-1-yl)-2-oxoethyl)-N-(4-fluoro-3-methylphenyl)benzamide] | < 5 µM | 5 to 30 µM
Cc1cc(NC(=O)c2ccc(F)c(C(F)(F)C(=O)N3[C@@H]4CCC[C@H]3CC(O)C4)c2)ccc1F (stereo partly drawn) [Example 202, 3-(1,1-difluoro-2-((1R,5S)-3-hydroxy-9-azabicyclo[3.3.1]nonan-9-yl)-2-oxoethyl)-4-fluoro-N-(4-fluoro-3-methylphenyl)benzamide] | < 5 µM | 5 to 30 µM
O=C(Nc1ccc(F)c(F)c1)c1ccc(F)c(C(F)C(=O)N2CCC(O)CC2)c1 (centres unmarked) [Example 32, N-(3,4-difluorophenyl)-4-fluoro-3-(1-fluoro-2-(4-hydroxypiperidin-1-yl)-2-oxoethyl)benzamide] | < 5 µM | 5 to 30 µM
Cc1cc(NC(=O)c2ccc(F)c(C(F)(F)C(=O)N3CCC(O)C(F)C3)c2)ccc1F (centres unmarked) [Example 162, 3-(1,1-difluoro-2-(3-fluoro-4-hydroxypiperidin-1-yl)-2-oxoethyl)-4-fluoro-N-(4-fluoro-3-methylphenyl)benzamide] | < 5 µM | 5 to 30 µM
O=C(Nc1ccc(F)c(F)c1)c1ccc(F)c(C(F)(F)C(=O)NC[C@H](O)CO)c1 [Example 54, (S)—N-(3,4-difluorophenyl)-3-(2-((2,3-dihydroxypropyl)amino)-1,1-difluoro-2-oxoethyl)-4-fluorobenzamide] | < 5 µM | > 30 µM
O=C(Nc1ccc(F)c(F)c1)c1ccc(F)c(C(O)C(=O)N2CCC(O)CC2)c1 (centres unmarked) [Example 120, N-(3,4-difluorophenyl)-4-fluoro-3-(1-hydroxy-2-(4-hydroxypiperidin-1-yl)-2-oxoethyl)benzamide] | > 30 µM | > 30 µM
Cc1cc(NC(=O)c2ccc(F)c(C(F)(F)C(=O)N3[C@@H]4CC[C@H]3CC(O)(CC(N)=O)C4)c2)ccc1F (stereo partly drawn) [Example 241, 3-(2-((1R,5S)-3-(2-amino-2-oxoethyl)-3-hydroxy-8-azabicyclo[3.2.1]octan-8-yl)-1,1-difluoro-2-oxoethyl)-4-fluoro-N-(4-fluoro-3-methylphenyl)benzamide] | < 5 µM | 5 to 30 µM
Cc1cc(NC(=O)c2ccc(F)c(C(F)(F)C(=O)N3CCC(O)CC3)n2)ccc1F [Example 300, 6-(1,1-difluoro-2-(4-hydroxypiperidin-1-yl)-2-oxoethyl)-5-fluoro-N-(4-fluoro-3-methylphenyl)picolinamide] | < 5 µM | 5 to 30 µM
Cc1cc(NC(=O)c2ccc(F)c(C(F)(F)C(=O)N3CCc4[nH]ncc4C3)c2)ccc1F [Example 204, 3-(1,1-difluoro-2-oxo-2-(1,4,6,7-tetrahydro-5H-pyrazolo[4,3-c]pyridin-5-yl)ethyl)-4-fluoro-N-(4-fluoro-3-methylphenyl)benzamide] | < 5 µM | 5 to 30 µM
Cc1cc(NC(=O)c2cccc(C(F)(F)C(=O)N3CCC(O)CC3)c2)ccc1F [Example 14, 3-(1,1-difluoro-2-(4-hydroxypiperidin-1-yl)-2-oxoethyl)-N-(4-fluoro-3-methylphenyl)benzamide] | < 5 µM | 5 to 30 µM
Cc1cc(NC(=O)c2ccc(F)c(C(F)(F)C(=O)N3C4CC[C@@H]3C[C@H](NS(C)(=O)=O)C4)c2)ccc1F [Example 262, 3-(1,1-difluoro-2-((1R,3r,5S)-3-(methylsulfonamido)-8-azabicyclo[3.2.1]octan-8-yl)-2-oxoethyl)-4-fluoro-N-(4-fluoro-3-methylphenyl)benzamide] | < 5 µM | 5 to 30 µM
Cc1cc(NC(=O)c2ccn(C)c2C(F)(F)C(=O)N[C@@H]2CCCC[C@H]2O)ccc1F [Example 128, 2-(1,1-difluoro-2-(((1R,2R)-2-hydroxycyclohexyl)amino)-2-oxoethyl)-N-(4-fluoro-3-methylphenyl)-1-methyl-1H-pyrrole-3-carboxamide] | 5 to 30 µM | > 30 µM
Cn1cc(C(=O)Nc2ccc(F)c(Cl)c2)cc1C(F)(F)C(=O)N[C@@H]1CCOC1 [Example 142, (R)-N-(3-chloro-4-fluorophenyl)-5-(1,1-difluoro-2-oxo-2-((tetrahydrofuran-3-yl)amino)ethyl)-1-methyl-1H-pyrrole-3-carboxamide] | < 5 µM | > 30 µM
Cc1cc(NC(=O)c2ccc(F)c(C(F)(F)C(=O)N3CCC(O)(CO)CC3)c2)cc(F)n1 [Example 222, 3-(1,1-difluoro-2-(4-hydroxy-4-(hydroxymethyl)piperidin-1-yl)-2-oxoethyl)-4-fluoro-N-(2-fluoro-6-methylpyridin-4-yl)benzamide] | 5 to 30 µM | > 30 µM
Cc1cc(NC(=O)c2ccc(F)c(C(F)(F)C(=O)NCc3nccs3)c2)ccc1F [Example 68, 3-(1,1-difluoro-2-oxo-2-((thiazol-2-ylmethyl)amino)ethyl)-4-fluoro-N-(4-fluoro-3-methylphenyl)benzamide] | < 5 µM | 5 to 30 µM
Cc1cc(NC(=O)c2ccn(C)c2C(F)(F)C(=O)NC(C)(C)CO)ccc1F [Example 105, 2-(1,1-difluoro-2-((1-hydroxy-2-methylpropan-2-yl)amino)-2-oxoethyl)-N-(4-fluoro-3-methylphenyl)-1-methyl-1H-pyrrole-3-carboxamide] | 5 to 30 µM | > 30 µM
Cc1cc(NC(=O)c2ccc(F)c(C(F)(F)C(=O)N3C[C@H]4CC[C@@H](C3)C4=O)c2)ccc1F [Example 280, 3-(1,1-difluoro-2-oxo-2-((1R,5S)-8-oxo-3-azabicyclo[3.2.1]octan-3-yl)ethyl)-4-fluoro-N-(4-fluoro-3-methylphenyl)benzamide] | < 5 µM | 5 to 30 µM
Cc1cc(NC(=O)c2ccc(F)c(C(F)(F)C(=O)N3[C@@H]4COC[C@H]3CC(=O)C4)c2)ccc1F [Example 201, 3-(1,1-difluoro-2-oxo-2-((1R,5S)-7-oxo-3-oxa-9-azabicyclo[3.3.1]nonan-9-yl)ethyl)-4-fluoro-N-(4-fluoro-3-methylphenyl)benzamide] | < 5 µM | 5 to 30 µM
Cc1cc(NC(=O)c2ccn(C)c2C(F)(F)C(=O)NC2CCC(O)CC2)ccc1F (centres unmarked) [Example 126, 2-(1,1-difluoro-2-(((1s,4s)-4-hydroxycyclohexyl)amino)-2-oxoethyl)-N-(4-fluoro-3-methylphenyl)-1-methyl-1H-pyrrole-3-carboxamide] | 5 to 30 µM | > 30 µM
O=C(Nc1ccc(Cl)cc1)c1ccc(Cl)c(C(F)(F)C(=O)N2CCC(O)CC2)c1 [Example 39, 4-chloro-N-(4-chlorophenyl)-3-(1,1-difluoro-2-(4-hydroxypiperidin-1-yl)-2-oxoethyl)benzamide] | 5 to 30 µM | 5 to 30 µM
